According to US12060356B2, “7 (methylamino)pyrazolo[1,5-a]pyrimidine-3-carboxamide derivatives” (Eli Lilly and Company, priority 2018, dated 2024):

Columns and labels:
[1] = molecular target: T1, pseudokinase domain (JH2) of human TYK2 (Homo sapiens, UniProt P29597); experiment: TYK2-JH2 Tracer Binding Assay; conditions: His-tagged TYK2-JH2 0.200 nM, Tracer 2.00 nM, TR-FRET, 30 minutes at room temperature
T1 construct: The pseudokinase domain (JH2) of human JAK; made in house
Excerpt: The pseudokinase domain (JH2) of human JAK (Janus family of cytoplasmic tyrosine kinases) family tyrosine kinase 2 (TYK2) (Genbank NP_003322) with an N-terminal His6 tag is expressed in baculovirus and purified by HisPur Ni-NTA affinity and Superdex 200 size-exclusion chromatography. The compound prepared in Preparation 17, a conjugate of Alexa Fluor 647 dye (Thermo Fisher Scientific) and a suitable TYK2 JH2 binder, is referred to herein as “the Tracer”. A 3 fold, 10 point serial dilution of compound, Example 1 and Example 2, are prepared in 100% DMSO and 50 nL/well transferred to a Proxiplate-384F white plate (PerkinElmer 6008280) using acoustic liquid handling. Control wells used to determine percent inhibition contained 100% DMSO (50 nL) and either assay buffer containing the Tracer (2.00 nM final concentration) (min, low FRET) or diluted TYK2-JH2 enzyme (0.200 nM final concentration) and the Tracer (2.00 nM final concentration) (max, high FRET). […] After 30 minutes, the plate is counted on a PerkinElmer Envision with the following settings: Excitation (340 nm), Tracer Emission (665 nm) and LanthaScreen Eu-anti-His Antibody Emission (615 nm). The ratio of Tracer Emission (665 nm) over LanthaScreen Eu-anti-His Antibody Emission (615 nm) is determined.

[2] = tested on: IFNα signaling through pSTAT1 in TF1 cells; experiment: Inhibition of IFNα Signaling Through pSTAT1 in TF1 Cells; type: cell-based; conditions: Homo sapiens, TF-1, 1 hr preincubation, 10 ng/mL IFNα2 for 20 minutes, p-Stat1 (Tyr701) AlphaLISA, GeoMetric mean (SEM, n)
Method: TF1 cells (ATCC, CL-2003) are grown in RPMI 1640 (GIBCO) supplemented with 10% dialyzed FBS, 0.1 mg/mL Ampicillin and 2 ng/mL granulocyte macrophage colony stimulating factor. TF1 cells (100 K per well) are seeded in a 96-well poly-D-lysine coated plates in serum-free DMEM and incubated overnight at 37° C. under 5% CO2. Example 1 is serially diluted in DMSO, added to the cells, and incubated at 37° C. for 1 hr. Cells are then stimulated with 10 ng/mL IFNα2 at 37° C. for 20 minutes. After removing the medium, the cells are lysed in buffer containing Halt protease and phosphatase inhibitor cocktail (Thermo Scientific #78441) at room temperature for 30 minutes. The amount of p-Stat1 (Tyr701) is quantified as light emission at 615 nm using the AlphaLISA SureFire Ultra p-Stat1 (Tyr701) assay kit (Perkin Elmer #ALSU-PST1-A50K) following the vendor's recommended protocol. Percent inhibition at each inhibitor concentration is calculated and fit to the four parameter nonlinear logistic equation using Genedata Screener® to give an IC50 for the compound of Example 1 of 0.007 μM (0.002 μM, n=4) and for the compound of Example 2 of 0.100 μM (0.014 μM, n=4) expressed as GeoMetric means with the standard error of the mean (SEM).

[3] = tested on: IL-23 signaling (STAT3 phosphorylation) in Kit225 cells; experiment: IL23 pSTAT3 AlphaLISA Assay; type: cell-based; conditions: 1 hour preincubation, IL23 25 ng/mL for 30 minutes, GeoMetric mean (SEM, n), read-out: relative IC50
Method: IL2-dependent Kit225 cells (University of Texas MD Anderson Cancer Center) expressing endogenous IL23 receptors are stably transduced with the Lenti STAT3 Reporter linked to firefly luciferase (SABiosciences CLS-6028L). These cells are used to monitor TYK2 activity by quantifying gene expression caused by STAT3 phosporylation following induction by IL23 in the presence of IL2 using AlphaLISA technology (TGR Biosciences ALSU-TST3-A50K). The cells are grown in RPMI 1640 (Gibco 22400) supplemented with 10% FBS (Invitrogen 10082), 1× Pen/Strep (Gibco 15140-122), 200 ng/ml Puromycin (Sigma P9620), and fresh 10 ng/ml recombinant human IL2 (R&D Systems 202-IL-50).
For assay preparation, cells are dispensed into Biocoat black poly-d-lysine coated clear bottom 384-well plates (Becton Dickinson Bio-Coat 35-4640) in DMEM (Sigma D5796) at 300,000 cells/well and allowed to incubate overnight at 37° C. Compounds solubilized in DMSO are serially diluted 1:3 to produce a 10-point concentration response curve (final DMSO=0.1%). Cells are pre-incubated with Example 1 for 1 hour at 37° C., then stimulated with IL23 (25 ng/mL final) for 30 minutes. […] The AlphaLISA reaction is performed following the vendor's recommended protocol, and the […] are measured using an Envision plate reader (Perkin Elmer).

T1 sequence (P29597 589-875 limits assumed): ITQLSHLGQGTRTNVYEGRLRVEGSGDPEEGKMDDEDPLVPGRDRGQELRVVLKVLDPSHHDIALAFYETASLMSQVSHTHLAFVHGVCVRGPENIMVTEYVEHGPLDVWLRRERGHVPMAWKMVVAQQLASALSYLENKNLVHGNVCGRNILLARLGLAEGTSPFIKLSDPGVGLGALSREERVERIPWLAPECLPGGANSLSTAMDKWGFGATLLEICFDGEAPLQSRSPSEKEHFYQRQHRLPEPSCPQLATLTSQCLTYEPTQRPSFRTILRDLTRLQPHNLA

Row | Structure (SMILES) | IC50 [1] [nM] | IC50 [2] [nM] | IC50 [3] [nM]
1 | CNc1cc(Nc2cccc3c2OCCC3)nc2c(C(=O)N[C@@H]3CCN(C)C3=O)cnn12 [Example 1, 5-(Chroman-8-ylamino)-7-(methylamino)-N-[(3R)-1-methyl-2-oxo-pyrrolidin-3-yl]pyrazolo[1,5-a]pyrimidine-3-carboxamide] | < 0.254 | 7 | 7
2 | CNc1cc(Nc2cccc(C)n2)nc2c(C(=O)N[C@@H]3CCN(C)C3=O)cnn12 [Example 2, 7-(Methylamino)-N-[(3R)-1-methyl-2-oxo-pyrrolidin-3-yl]-5-[(6-methyl-2-pyridyl)amino]pyrazolo[1,5-a]pyrimidine-3-carboxamide] | < 0.254 | 100 | 66
